Laboratory results from patent US20210371817A1, “COMPOSITIONS AND METHODS FOR PRECISE PATTERNING OF POSTERIOR NEUROECTODERM FROM HUMAN PLURIPOTENT STEM CELLS” (WISCONSIN ALUMNI RESEARCH FOUNDATION, priority 2013, published 2021).

Legend:
[1] = tested on: H9 hESCs; assay: HOX, OTX2 and T gene expression by RT-PCR/qPCR during hESC differentiation with morphogens; format: cell-based, human; settings: neuromesodermal state
Experimental: hPSC differentiation. hPSCs were washed once with phosphate-buffered saline (PBS; Invitrogen), dissociated with ACCUTASE® (Invitrogen) for 3 min, and collected by centrifugation. hPSCs were then seeded onto VTN-NC-coated plates in E8 medium containing 10 μM ROCK inhibitor (Y27632; R&D Systems). Seeding density was 2×10^5 cells/cm^2. The following day, the cells were switched to E6 medium (same composition as E8 medium minus FGF2 and TGFβ 1). Morphogen treatments were then carried out according to the figures in the text. Cells were supplemented with FGF8b (100-200 ng/ml; Peprotech), CHIR99021 (3-6 μM; Tocris), and/or RA (3 μM; Sigma).
Reverse transcriptase polymerase chain reaction (RT-PCR). Total RNA was extracted from cells using TRIZOL® reagent (Invitrogen) according to the manufacturer's instructions. RNA was then subjected to reverse-transcription using a Thermoscript™ RT-PCR kit (Invitrogen) in a 20 μL mixture according to the manufacturer's instructions. The resulting cDNA was then amplified in a 25 μL mixture containing 10×PCR buffer, 0.2 mM dNTP, 1.5 mM MgCl2, 0.5 μM of each primer, and 1 U Taq DNA polymerase (Invitrogen). Amplified products were resolved on 2% agarose gels containing SYBR Safe (Invitrogen) and visualized with a VersaDoc (BioRad). Primer sequences can be found in Table 3. All amplifications were carried out for 35 cycles. HOXC5 and HOXC6 were amplified at 58° C., all others with an annealing temperature of 55° C.
Propagation and differentiation of neuromesodermal progenitors. H9 hESCs (passage 25-45), H9 ishcat2 hESCs (passage 33-43), and IMR90-4 iPSCs (passage 31-40) were maintained in E8 medium on MATRIGEL© (BD Biosciences) as previously described. To initiate differentiation, hPSCs were passaged with ACCUTASE© (Life Technologies) onto vitronectin (VTN-NC)-coated plates at a density of 1×10^5 cells/cm^2 as previously described. The following day, cells were changed to E6 medium. 24 h later, cells were changed to E6 medium containing 200 ng/ml FGF8b (Peprotech). 24 h later, cells were washed once with 2 ml PBS, treated with ACCUTASE® for 2 min, and removed from the surface by gentle pipetting. After collection by centrifugation, cells were gently resuspended in E6 medium containing 200 ng/ml FGF8b and CHIR99021 (CHIR, concentration varied depending on cell line; Tocris) and re-seeded on VTN-NC-coated plates at a density of 1.5×10^5 cells/cm^2. Medium was not changed until 48 h after passaging. This passaging process was repeated on day 3 of CHIR 99021 treatment (re-seed density of 1.2×10^5 cells/cm^2) if extended neuromesodermal propagation was required, and 50 ng/ml GDF11 (Peprotech) was added on day 4 of CHIR 99021 treatment to initiate lumbar patterning. Cells were changed to E6 medium containing 1 μM retinoic acid (RA; Sigma) to facilitate neural transition.
qPCR. Total RNA was extracted from cultured cells using TRIZOL® (Life Technologies) according to the manufacturer's instructions. After isolation, 2-5 μg of total RNA was immediately subjected to reverse transcription using the Thermoscript™ RT-PCR kit (Life Technologies) in a 20 μL reaction according to the manufacturer's instructions. […] For all experiments, ΔΔCt values for each gene were calculated relative to ribosomal protein S18 (RPS18) RNA levels and converted to fold difference assuming 100% primer efficiency, then normalized to maximum expression levels as indicated in each figure legend. […]

[2] = tested on: neuromesodermal cells; assay: Pax6 and HoxD10 expression after GDF11 with or without dorsomorphin, then RA; format: cell-based, human; settings: GDF11 present in the neuromesodermal morphogen cocktail
Source text: (FIG. 7A) Timeline of differentiation. (FIG. 7B) qPCR assessment of lumbar/sacral gene expression at day 12. A minimum concentration of GDF11 is required to activate HoxD10 and HoxA11. Each gene is normalized to the maximum GDF11 dose. Error bars are standard deviation calculated from duplicate reactions. (FIG. 7C) Expression of Pax6 in response to increased GDF11 concentrations. Data were collected by flow cytometry and represented as mean±standard deviation calculated from two biological replicates. Sox2 was uniformly expressed regardless of GDF11 treatment (data not shown). […] Grey histograms, IgG control; Red histograms, Pax6. Data are representative of two biological replicates. […] Percentages were quantified as HoxD10 labeling relative to DAPI-stained nuclei (>2500 total cells counted per sample). Scale bars, 100 μm
After neural tube closure in vivo, opposing gradients of TGFβ and SHH signaling produce distinct dorsal and ventral domains from which sensory neurons, interneurons, and motor neurons arise. Pax6, which has been identified as a neuroectoderm fate determinant, is expressed throughout most of the neural tube but is absent from the most dorsal and ventral domains. […] The ability of GDF11 to control rostral/caudal patterning is mediated by signaling via ALK5 and activation of the SMAD2/3 complex. […]

## GDF11: Growth differentiation factor 11, a TGFβ family member
[1]; data not shown
  Expression of hindbrain/cervical genes HOXA4, HOXB4, HOXC6: did not repress
[1]; qPCR, GDF11 50 ng/ml
  Activation of lumbar and sacral HOX paralogs: necessary for robust activation of lumbar (HOX10) and sacral (HOX11) paralogs
[2]
  Pax6 expression after RA: decreased
